Broadly, the EC50 is the concentration needed to bring the measured effect to its halfway point.

This is an account of results in patent US20060052459A1, “Antifungal medicaments comprising arylamidine derivatives” (priority 2002, published 2006).

The subject of test [1] is Aspergillus fumigatus strain IP 864.64. In words: In vitro antifungal growth inhibition on microtitre plates (optical density 590 nm), compounds alone or as mixtures (Wadley method). It is filed as cell-based. Conditions: second study. As for the experimental part: (§1) The following fungi were used for this study: Candida albicans strains IP 48.72 (ATCC 10231) and Aspergillus fumigatus strain IP 864.64 obtained from the Collection Nationale de Cultures de Microorganismes (CNCM) of the Institut Pasteur. The strains are cultured on Yeast Extract-Peptone-Dextrose (YEPD) agar medium comprising 0.5% yeast extract, 0.5% bactopeptone, 2% glucose and 2% agar at 30° C. and in the dark.
(§2) All these compounds were prepared in a DMSO solution at a final concentration of 100 mg/ml. The stock solutions are stored at −20° C. up to the time of use.
(§3) The trials are carried out in RPMI 1640 medium with no sodium bicarbonate, but with L-glutamine buffered with 0.165 mol per litre of 3-[N-morpholino]propanesulphonic acid (MOPS), enriched (<>) or otherwise (<>) with 2% glucose. The pH of this medium is adjusted to 7.0. The medium is sterilized by filtration (0.22 μm) and stored at 4° C. up to the time of use.
(§4) All the antifungal tests are carried out on microtitre plates. The initial suspensions of spores are prepared in a sterile solution containing 0.85% NaCl, supplemented with Tween 80 at 0.01%. These initial suspensions are then diluted in the culture medium (RPMI 1640 enriched or otherwise with 2% glucose) to a final concentration of 10^4 spores per ml. The measurements of viability of each inoculum are verified by subcultures of a volume of 300 μl on YEPD agar medium.
(§5) The antifungal compounds are tested in a range of concentrations ranging from 0.026 to 100 μg of active ingredient/ml. These antifungal compounds are then diluted in RPMI 1640 medium enriched or otherwise with 2% glucose. A final DMSO concentration of 0.2% is used throughout the measurements. Each trial is carried out on a series of dilutions of antifungal compounds, in duplicate. The antifungal dilutions (0.1 ml) and the fungal inoculum (0.1 ml) are added to each of the wells of the microtitre plate. The plates are then read with a spectrophotometer (ELX 800UV Bio-Tek Instruments, Inc) at a wavelength of 590 nm. The plates are read immediately after (t=0) and after 48 hours' incubation at 30° C. and in the dark. The optical density values obtained are correlated with fungal growth between the times t=0 and t=48 hours. The optical density values are used to calculate the percentage inhibition of growth for each concentration of antifungals by comparison with the control. The values are then used to plot a dose-response curve and the EC50 value is determined for each fungus and each compound with the aid of the Grafit 5.0® software (Erithacus software Ltd).
(§6) The method which was used to measure the type of interaction existing between the antifungal compounds in the form of mixtures is the Wadley method.
(§7) In the Wadley approach, the dose-response curve for each of the compounds A and B, and for the mixture AB, is constructed. The EC50 is calculated for each compound taken individually and for the mixture. If a and b are the absolute quantities of the compounds A and B in the mixture (a=1, b=1, a+b=2 under our conditions), the expected effective concentration (EC50exp) may be calculated in the following manner: EC50exp=(a+b)/[a/EC50A)+b/(EC50B)
(§8) The Wadley approach may be used to estimate the type of interaction existing between the fungal compounds, regardless of their concentration. Its reliability is not dependent on the percentage inhibition. The type of interaction between two compounds is given by the level of interaction (LI) which corresponds to the ratio between the expected effective concentration (EC50exp) and that observed (EC50obs) of the mixture. The nature of the interaction obtained by the Wadley formula is presented in Table 1 (see U. Gisi, Synergistic interaction in fungicide mixtures, 1996. Phytopathology 86, 1273-1279) below.
(§9) The experimental conditions are the same as previously described.

Test [2] has as its system Candida albicans strains IP 48.72 (ATCC 10231). The test is described as above. It is filed as cell-based. To be noted: second study. As for the experimental part: as §1, §2, §3, §4, §5, §6, §7, §8, §9

With `CCN(C)C=Nc1cc(C)c(Oc2ccc(C#N)c(C(F)(F)F)c2)cc1C` [Compound I.2, N-ethyl-N-methyl-N′-[4-(4-cyano-3-trifluoromethylphenoxy)-2,5-dimethylphenyl]imidoformamide], the EC50 was 0.088 µg/mL in test [1] (Aspergillus fumigatus, IP864.64, 48 h, strain IP 864.64, RPMI 1640 medium enriched with 2% glucose, 48 hours at 30° C., read-out: EC50) and 0.205 µg/mL in test [2] (Candida albicans, ATCC10231, 48 h, strain IP 48.72, RPMI 1640 medium enriched with 2% glucose, 48 hours at 30° C., read-out: EC50). Moreover, in test [1] (enriched medium), the “efficacy in vitro compared with compounds I.1 and II.2” value is “twice higher”. Also, the “efficacy in vitro compared with compounds I.1 and II.1” value in test [2] (enriched medium) was “better efficacy”.
